{"source": "patent US11196057B2", "about": "“Metal-air cell with performance enhancing additive” (ARIZONA BOARD OF REGENTS ACTING FOR AND ON BEHALF OF …, priority 2010, dated 2021)", "key": {"[1]": {"test": "pKa values of different proton sources (protic additives)", "conditions": "for pKa: water; for pKa (H20): in water"}, "[2]": {"test": "Properties of host ionic liquid BDMeIm Tf (gravimetric, Cottrell)", "type": "physicochemical", "experimental": "A series of protic additives were added into an ionically conductive medium in order to examine the effects of such additives upon oxygen reduction reaction (“ORR”). An aprotic ionic liquid BdMelm:Tf was used as the host for the additive. A photograph of an experimental setup is provided in FIG. 5A, with FIG. 5B showing a cartoon of a close-up of the measurement tube/chamber. […] See e.g., FIG. 5F. Also, the IL had the benefit of the superacidity of Tf, which minimizes solvent leveling effects. Additional benefits of this dry aprotic IL system include also invariant electrode, high reversibility, and high reactivity, as shown in cyclic voltammagrams (CV) in FIG. 5C and the result of the Kouteeky-Levich ([…]) analysis with respect to the number of electrons per O2 vs. potential in FIG. 5D."}, "[3]": {"conditions": "aqueous system; cited from earlier work"}}, "note": "Where two headings read alike, the source gives them in different places.", "data": [{"molecule": "OCC(F)(F)F", "note": "[2,2,2-trifluoroethanol]", "values": [{"measurement": "pKa", "setting": "[1]", "value": 12.5}]}, {"molecule": "CCCCn1cc[n+](C)c1C.O=S(=O)([O-])C(F)(F)F", "note": "[BDMelm Tf]", "values": [{"measurement": "density", "setting": "[2]", "value": "about 1.4 g/mL"}, {"measurement": "oxygen solubility", "setting": "[2]; measured gravimetrically and through Cottrell", "value": "about 2.5 mM"}]}, {"molecule": "[O]O", "note": "[superoxide]", "values": [{"measurement": "pKa", "setting": "[3]", "value": "about 4.7"}]}, {"molecule": "CCCCN=C(N(C)C)N(C)C", "note": "[2-butyl-1,1,3,3-tetramethylguanidinium triflate]", "values": [{"measurement": "pKa", "setting": "[1]", "value": 13.6}]}, {"molecule": "CCN(C)CC.O=S(=O)(O)C(F)(F)F", "note": "[n,n-diethyl-n-methylammonium triflate]", "values": [{"measurement": "pKa (H20)", "setting": "[1]", "value": 10.6}]}, {"molecule": "OO", "note": "[peroxide]", "values": [{"measurement": "pKa", "setting": "[3]", "value": 11.63}]}, {"molecule": "O.O=S(=O)(O)C(F)(F)F", "note": "[hydronium triflate]", "values": [{"measurement": "pKa (H20)", "setting": "[1]", "value": "−1.7"}]}, {"molecule": "Cc1nccn1C.O=S(=O)(O)C(F)(F)F", "note": "[1,2-dimethylimidaozlium triflate]", "values": [{"measurement": "pKa (H20)", "setting": "[1]", "value": 7.4}]}]}
